The source of these data is patent US20130150399A1, “INHIBITORS OF THE UNFOLDED PROTEIN RESPONSE AND METHODS FOR THEIR USE” (The Board of Trustees of the Leland Stanford Junior …, priority 2006, published 2013).

In one data set the test system is HIF-1α. The experiment in a line: Western immunoblot of HIF-1α, HT1080 cells under hypoxia. It is filed as cell-based, human. To be noted: 2 μM; 24 hours of hypoxia. The protocol: Cells (2×10^6) were cultured in 10-cm dishes, collected using a cell scraper at 4° C., and lysed by addition of 150 μl cell lysis buffer [50 mM Tris pH 7.4, 150 mM NaCl, 10% glycerol, 0.5% Triton X-100. 0.5% NP-40, 2 mM Na3VO4, 20 mM beta-glycerophosphate, 10 mM NaF, 1 mM DTT, 1 mM PMSF). Lysates were centrifuged for 5 min at 10,000×g, and proteins (˜40 μg) were resolved by SDS-PAGE followed by semi-dry transfer to nitrocellulose membranes. Membranes were blocked in TBS-5% milk supplemented with 0.1% Tween-20. The blots were then probed overnight with relevant antibodies, washed, and incubated for 2 hours with species-specific secondary antibodies conjugated to horseradish peroxidase. After washing in block solution, immunoreactive material was detected by enhanced chemiluminescence (SuperSignal West Dura Extended, Pierce, Inc., Rockville, Ill.).
(§1) A. XBP-luciferase reporter construct. […] After 24 hours, luciferase activity was analyzed in an automated plate reader. For each cell line, values are expressed as the percent inhibition of the median for Tm/Tg-treated wells, corrected for background. […] Values are expressed as the fold increases over uninduced levels. […] Cells were harvested, lysed, and analyzed by immunoblotting with antisera specific for HIF-1α (top), XBP-1s (middle) or actin (bottom). […] Total RNA was analyzed by Northern blotting using radiolabeled probes specific for P58^IPK or DER-1. […]
In general terms: In western blotting, separated proteins are transferred to a membrane and probed.

A further data set relates to P58^IPK, DER-1. Briefly: Northern blot of XBP-1s transcription targets, HT1080 cells. It counts as cell-based, human. The settings on record: 2 μM; Tm or hypoxia 24 hours. The protocol:
Cells were cultured in 10 cm plates, harvested, and total RNA recovered with Trizol (Invitrogen, San Diego, Calif.). Total RNA (10 μg) was resolved on a 1% agarose-formaldehyde gel. ^32P-labeled probes were prepared using the Rediprime II random-prime labeling kit (GE-Amersham, Buckinghamshire, UK). The primers used to PCR amplify probes are as follows. P58^IPK: 5′[…] 3′ (SEQ ID NO: 4); 5′ […] 3′ (SEQ ID NO: 5). DER-1: 5′ […] 3′ (SEQ ID NO: 6); 5′[…] 3′ (SEQ ID NO: 7). Blots were incubated with probe overnight, washed three times in 2×SSC/0.2% SDS, dried, and exposed to a phosphorimager screen overnight. Images were analyzed using ImageQuant software (Molecular Dynamics).
as §1, with “construct. Firefly luciferase was inserted downstream of the IRE1α splice site in human XBP-1 to enable the conditional translation of luciferase under ER stress in an IRE1α-dependent manner.” for “construct.”

Data set [1] in a line: Blood chemistry, complete blood count and histopathology. It is filed as in vivo, mice. The protocol:
Complete blood counts (CBC's) and clinical chemistry panels were performed on blood obtained by cardiac puncture after euthanasia with CO2 Gross necropsies were performed, all major viscera were harvested, fixed in 10% buffered neutral formalin, routinely processed for paraffin embedding, and stained with hematoxylin and eosin (H&E). Sections were analyzed by a board-certified veterinary pathologist (DMB). […]

The mark [2] stands for this setting: irestatin-treated nude mice, terminal cardiac blood draw, mean.

For `Cc1csc(NC(=O)CSc2nc3c(c(C(F)(F)F)c2C#N)CCC3)n1` [Compound 9389], in the data set with HIF-1α, the “expression of HIF-1α” value is “not affected”. Also, the “induction of P58^IPK and DER-1 expression” value in the data set with P58^IPK, DER-1 was “fully inhibited this response”. For the same compound, the “tolerability (kidney, liver, bone marrow function)” value in data set [1] (3-4 doses of 50 mg/kg every other day) is “well tolerated”. Further, the “fasting blood glucose levels versus vehicle” value in data set [1] (irestatin- and vehicle-treated animals) was “no significant difference in fasting blood glucose levels”. In data set [1] (setting [2]), the ALT turned out to be 29.4 IU/L, the AST turned out to be 117.775 IU/L, the “Anion Gap” value was 17.975 mM and the “Carbon Dioxide” value stood at 25.075 mM. In data set [1] (setting [2]), this compound displayed a Chloride of 116.75 mM, a Cholesterol of 102 mg/dL, a Glucose of 124.5 mg/dL and an HCT of 47%. Besides, in data set [1] (setting [2]), the HGB is given as 14.625 gm/dL, the Na/K Ratio came to 20.3, the Platelets is 805.5 K/uL and the Potassium was determined as 7.5175 mM. Further, in data set [1] (setting [2]), the RBC worked out at 10.375 M/uL, the Sodium is given as 152.25 mM, the “Total Bilirubin” value is listed as 0.3 mg/dL and the WBC amounted to 5.19 K/uL. In data set [1] (three doses, 50 mg/kg), the “histopathological analysis of all major organs” value is “no significant differences between the vehicle and irestatin treatment groups”.
